Experimental data from patent US20220315567A1 (priority 2016, published 2022).
pEC50: −log10 of the molar value. Values joined by “and” are separate entries in the source; they are usually repeats but may differ in a detail not shown here. Identical values can stand only once. Counter-ions that a name gives are not always drawn. Like-named read-outs stand apart in the source and are kept apart here.

Legend:
human OPRM1 (μ, MOR) [1] = biological target: T1, human OPRM1 (μ, MOR) (Homo sapiens, UniProt P35372); assay: cell-based; conditions: for Emax: OPRM1, read-out: cAMP Emax; for pEC50: PathHunter human OPRM1 Arrestin CHO-K1 cell line, read-out: cAMP EC50
T1 construct: host or cells: CHO-K1
Procedure: G-protein signaling was measured via second messenger cAMP modulation. Detection of cAMP modulation was accomplished in the PathHunter human OPRM1 (μ, MOR) Arrestin CHO-K1 cell line using the Dynamic2 cAMP Kit from Cisbio.

human OPRM1 (μ, MOR) [2] = biological target: T1, human OPRM1 (μ, MOR); type: cell-based; conditions: for ΔRA of compound: relative activity from EC50 and Emax of β-arrestin vs cAMP, lower RA = more G-protein biased
Procedure: In certain embodiments, the ability of a compound to activate G-protein or β-arrestin is not an on/off switch for a given pathway, but rather a continuous function. To capture this, each compound is measured for activity in cell assays that are linked to β-arrestin recruitment and G-protein signaling. By comparing the activity between these two measures (accounting for both EC50 and maximal response reached, Emax) a relative activity (RA) value is determined.
In the case of MOR it is desirable to have high activation of the G-protein pathway while reducing activation of β-arrestin. In the case of the formula above, this means a lower RA.

human OPRM1 (μ, MOR) [3] = biological target: T1, human OPRM1 (μ, MOR); assay: cell-based; conditions: for Emax: OPRM1, read-out: β-Arrestin Emax; for pEC50: PathHunter human OPRM1 Arrestin CHO-K1 cell line, read-out: β-Arrestin EC50
Procedure: The Discoverx PathHunter® β-Arrestin assay is used to measure β-arrestin-2 activity. The technology is based on Enzyme Fragment Complementation (EFC) with β-galactosidase (β-Gal) as the reporter. […] EA is fused to Q-arrestin-2, and ED is fused to the C-terminus of the GPCR of interest. When a ligand binds and the GPCR is activated, Q-arrestin-2 is recruited to the receptor resulting in an ED/EA complementation, restoring f-Gal activity, which is measured using chemiluminescence. For this assay, the PathHunter human OPRM1 (μ, MOR) Arrestin CHO-K1 cell line was used.

T1 sequence (P35372 whole entry): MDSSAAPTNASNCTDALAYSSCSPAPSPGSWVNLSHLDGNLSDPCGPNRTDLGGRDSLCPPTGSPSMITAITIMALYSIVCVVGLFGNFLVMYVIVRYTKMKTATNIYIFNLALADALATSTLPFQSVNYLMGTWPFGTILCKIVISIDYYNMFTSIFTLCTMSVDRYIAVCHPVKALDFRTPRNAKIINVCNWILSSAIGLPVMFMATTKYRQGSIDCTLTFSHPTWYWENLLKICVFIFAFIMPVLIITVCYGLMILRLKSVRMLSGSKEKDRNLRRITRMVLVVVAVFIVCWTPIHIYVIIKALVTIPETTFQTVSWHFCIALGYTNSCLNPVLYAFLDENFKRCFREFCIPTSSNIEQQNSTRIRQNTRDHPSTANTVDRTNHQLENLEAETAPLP

Compound	Emax (human OPRM1 (μ, MOR) [1]) [%]	pEC50 (human OPRM1 (μ, MOR) [1])	Bias Factor (ΔRA of compound relative to ΔRA of DAMGO) × 10 (human OPRM1 (μ, MOR) [2])	ΔRA of compound (human OPRM1 (μ, MOR) [2])	Emax (human OPRM1 (μ, MOR) [3]) [%]	pEC50 (human OPRM1 (μ, MOR) [3])	cAMP Emax (human OPRM1 (μ, MOR) [1]; hydrochloride)	Bias Factor (ΔRA of compound relative to ΔRA of DAMGO) × 10 (human OPRM1 (μ, MOR) [2]; hydrochloride)	ΔRA of compound (human OPRM1 (μ, MOR) [2]; hydrochloride)	β-Arrestin Emax (human OPRM1 (μ, MOR) [3]; hydrochloride) [%]	β-Arrestin Emax (human OPRM1 (μ, MOR) [3]) [%]	cAMP Emax (human OPRM1 (μ, MOR) [1]) [%]
CN(C)C(CNC(=O)NC1CCCc2ccccc21)c1ccsc1 (stereo not drawn) [Compound 11a, 1-(2-(Dimethylamino)-2-(thiophen-3-yl)ethyl)-3-(1,2,3,4-tetrahydronaphthalen-1-yl)urea hydrochloride]	94.3	> 9.00	2.32	−1.24	112	7.68	–	–	–	–	–	–
CN(C)[C@@H](CCNC(=O)N1Cc2ccc(F)cc2C1)c1ccsc1 [Compound 30-S, (S)—N-(3-(Dimethylamino)-3-(thiophen-3-yl)propyl)-5-fluoroisoindoline-2-carboxamide]	96.1	6.16	<−14.83	<−2.96	9.9	< 4.00	–	–	–	–	–	–
CN(C)C(CNC(=O)N1CCCc2ccccc21)c1ccccc1 (stereo not drawn) [Compound 69a]	110	6.25	−8.38	−2.32	8	5.07	–	–	–	–	–	–
CN(C)C(CNC(=O)N1CC[C@H](c2ccccc2)C1)c1ccsc1 (stereo partly drawn) [Compound 40]	53.5	6.82	<−14.83	<−2.96	3.3	< 4.00	–	–	–	–	–	–
CN(C)C(CNC(=O)N1Cc2ccc(F)cc2C1)c1ccsc1 (single isomer, unassigned; (-)) [2a-ent-(−), (−)-N-(2-(Dimethylamino)-2-(thiophen-3-yl)ethyl)-5-fluoroisoindoline-2-carboxamide hydrochloride]	–	7.92 and 7.82	–	–	–	< 4.00	55.5, 30.4%	<−14.83	<−2.96	<1	–	–
CN(C)C(CNC(=O)N1Cc2ccccc2C1)c1ccccc1 (stereo not drawn) [Compound 18a, N-(2-(Dimethylamino)-2-phenylethyl)isoindoline-2-carboxamide hydrochloride]	100	7.64	–	–	6.91	6.14	–	−11.84	−2.66	–	–	–
CNC(CNC(=O)N1Cc2ccccc2C1)c1ccccc1 (single isomer, unassigned; (-)) [Compound 38-ent-A, (−)-N-(2-(Methylamino)-2-phenylethyl)isoindoline-2-carboxamide]	81.6	6.42	<−14.83	<−2.96	3.7	< 4.00	–	–	–	–	–	–
CN(C)C(CNC(=O)N1Cc2ccc(O)cc2C1)c1ccsc1 (stereo not drawn) [Compound 22, N-(2-(Dimethylamino)-2-(thiophen-3-yl)ethyl)-5-hydroxyisoindoline-2-carboxamide hydrobromide]	16.3	6.49	<−14.83	<−2.96	< 1	< 4.00	–	–	–	–	–	–
CN(C)C(CNC(=O)N(C)C1CCCc2ccccc21)c1ccsc1 (stereo not drawn) [Compound 13a, 3-(2-(Dimethylamino)-2-(thiophen-3-yl)ethyl)-1-methyl-1-(1,2,3,4-tetrahydronaphthalen-1-yl)urea hydrochloride]	95.3	7.17	−8.39	−2.3	11.3	5.77	–	–	–	–	–	–
CN(C)C(CNC(=O)NC1CCc2ccccc2C1)c1ccsc1 (stereo not drawn) [Compound 10a, 1-(2-(Dimethylamino)-2-(thiophen-3-yl)ethyl)-3-(1,2,3,4-tetrahydronaphthalen-2-yl)urea hydrochloride]	85.5	8.40	<−14.83	<−2.96	3.33	< 4.00	–	–	–	–	–	–
COc1ccc(C(CNC(=O)N2CC[C@@H](c3ccccc3)C2)N(C)C)cc1 (stereo partly drawn) [Compound 42]	21.9	5.13	<−14.83	<−2.96	< 1	< 4.00	–	–	–	–	–	–
CN(C)[C@H](CCNC(=O)N1CC[C@H](c2ccccc2)C1)c1ccsc1 [Compound 75]	114	5.68	−3.97	−1.88	12.2	4.77	–	–	–	–	–	–
CNC(CNC(=O)N1Cc2ccc(F)cc2C1)c1ccsc1 (stereo not drawn) [Compound 35, 5-Fluoro-N-(2-(methylamino)-2-(thiophen-3-yl)ethyl)isoindoline-2-carboxamide]	26.4	5.93	<−14.83	<−2.96	< 1	< 4.00	–	–	–	–	–	–
CNC(CNC(=O)N1Cc2cccc(F)c2C1)c1ccsc1 (stereo not drawn) [Compound 80]	103	7.39	−6.64	−2.14	–	5.86	–	–	–	–	25.2	–
CN(C)C(CNC(=O)N1Cc2cccc(F)c2C1)c1ccsc1 (stereo not drawn) [Compound 3a, N-(2-(Dimethylamino)-2-(thiophen-3-yl)ethyl)-4-fluoroisoindoline-2-carboxamide hydrochloride]	94.2	7.85	−5.07	−1.99	21.9	6.51	–	–	–	–	–	–
CNC(CNC(=O)N1Cc2ccccc2C1)c1ccsc1 (stereo not drawn) [Compound 79]	–	7.06	<−14.83	<−2.96	–	< 4.00	–	–	–	–	1.7	64.2
CN(C)C(CNC(=O)N[C@H]1CCc2ccc(O)cc2C1)c1ccsc1 (stereo partly drawn) [Compound 60]	27.5	6.17	<−14.83	<−2.96	< 1	< 4.00	–	–	–	–	–	–
CNC(CNC(=O)N1Cc2ccc(F)cc2C1)c1ccc(OC)cc1 (stereo not drawn) [Compound 83]	–	7.24	<−14.83	<−2.96	–	< 4.00	–	–	–	–	13.4	100.1
CN(C)[C@H](CCNC(=O)N1Cc2ccc(F)cc2C1)c1ccsc1 [Compound 30-R, (R)—N-(3-(Dimethylamino)-3-(thiophen-3-yl)propyl)-5-fluoroisoindoline-2-carboxamide]	109	6.22	−5.73	−2.05	9.2	5.24	–	–	–	–	–	–
CNC(CNC(=O)N1Cc2ccccc2C1)c1ccccc1 (stereo not drawn) [Compound 38, N-(2-(methylamino)-2-phenylethyl)isoindoline-2-carboxamide]	95.9	7.35	−12.56	−2.74	6.6	5.78	–	–	–	–	–	–
CN(C)C(CNC(=O)NC1CCCc2c(O)cccc21)c1ccsc1 (stereo not drawn) [Compound 59]	108	8.22	−1.95	−1.67	61	6.80	–	–	–	–	–	–
CN(C)C(CNC(=O)N1Cc2ccc(F)cc2C1)c1ccccc1 (stereo not drawn) [Compound 20a, N-(2-(Dimethylamino)-2-phenylethyl)-5-fluoroisoindoline-2-carboxamide hydrochloride]	70.8	7.51	<−14.83	<−2.96	3.65	< 4.00	–	–	–	–	–	–
CN(C)C(CNC(=O)N1Cc2ccccc2C1)c1ccsc1 (stereo not drawn) [Compound 1a, N-(2-(Dimethylamino)-2-(thiophen-3-yl)ethyl)isoindoline-2-carboxamide hydrochloride]	69.2	7.70	−5.75	−2.06	5.67	6.73	–	–	–	–	–	–
CN(C)C(CNC(=O)N1Cc2ccccc2C1)c1ccccc1 (single isomer, unassigned) [Compound 57]	89.4	7.14	<−14.83	<−2.96	–	< 4.00	–	–	–	–	<1	–
